Reference: US20250120988A1, “SMALL MOLECULE COMPOUND FOR TREATING ISCHEMIC STROKE, ITS PREPARATION METHOD, AND APPLICATION” (SHANGHAI SIXTH PEOPLE'S HOSPITAL, priority 2023, published 2025)

Biological target: T1, ASIC1a (Homo sapiens, UniProt P78348)
T1 construct: expressed in transfected cells
T1 sequence (P78348 1-528): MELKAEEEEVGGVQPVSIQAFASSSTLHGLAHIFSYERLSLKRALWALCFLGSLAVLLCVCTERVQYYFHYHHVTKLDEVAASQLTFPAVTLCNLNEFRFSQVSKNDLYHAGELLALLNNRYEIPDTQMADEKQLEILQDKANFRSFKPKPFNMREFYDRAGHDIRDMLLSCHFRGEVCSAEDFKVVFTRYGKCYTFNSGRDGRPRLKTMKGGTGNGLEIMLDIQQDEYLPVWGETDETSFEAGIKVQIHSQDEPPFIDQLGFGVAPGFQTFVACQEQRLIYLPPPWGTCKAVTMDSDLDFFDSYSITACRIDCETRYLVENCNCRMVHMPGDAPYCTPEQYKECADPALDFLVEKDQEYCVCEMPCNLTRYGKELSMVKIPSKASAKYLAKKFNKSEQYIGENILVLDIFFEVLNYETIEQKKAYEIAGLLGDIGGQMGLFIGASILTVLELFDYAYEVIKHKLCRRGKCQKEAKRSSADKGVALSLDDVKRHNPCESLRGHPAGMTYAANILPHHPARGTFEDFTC
Experiment: Whole-cell patch clamp, competitive blocking of glutamate-potentiated ASIC1a current in CHO cells
Format: cell-based
Conditions: pH 7.0, 500 μM glutamate, read-out: IC50 of competitive antagonism against the glutamate binding ASIC1a current
Protocol: Figure a illustrates the LK-2 concentration-dependent blocking of signal of ASIC1a current (recorded from the same CHO cell) activated at pH 7 in patch clamp experiments, with a glutamate concentration of 500 μM and LK-2 concentrations of 1, 10, 50, and 100 μM in sequence. […] Smaller values indicate stronger blocking effects of the compound.
[drawing 3] • 2. Electrophysiological experiments refer to the use of patch clamp techniques to overexpress ASICs (ASIC1a) and NMDARs (GluNR1+NR2A or GluNR1+NR2B) in CHO cell lines (Chinese hamster ovary cells), with the above-mentioned proteins carrying GFP green fluorescent protein for identification under fluorescence microscopy. The synthesized small molecules are separately tested for their blocking effects on the currents generated by the two types of receptors, and the IC50 values are calculated. • 2.1 The experimental steps of the membrane clamp technique are as follows. […]
Chinese hamster ovary cells (CHO) and HEK293T cells (provided by the Chinese Academy of Sciences Stem Cell Bank) were cultured separately in F12 and DMEM media (Gibco) containing 10% FBS (Gibco). […] All experiments were performed 24-48 hours after transfection, and all culture dishes were washed three times with ECF before the experiment, and GFP-positive CHO cells were observed under a fluorescence microscope for patch clamp recording. […]

For `O=C(O)C1CN(C(c2ccccc2)P(=O)(O)O)CCN1` (stereo not shown) [LK-2], the IC50 was 6.6 ± 2.1 µM.
